One test deals with α-glucosidase. Briefly: α-glucosidase inhibition (PNPG). The test is classed as biochemical, Saccharomyces cerevisiae. The note with it: at 200 µg/mL.
For another test, the target named is T1, α-amylase (Sus scrofa, UniProt P00690).
T1 construct: host or cells: porcine pancreas
T1 sequence (P00690 16-511): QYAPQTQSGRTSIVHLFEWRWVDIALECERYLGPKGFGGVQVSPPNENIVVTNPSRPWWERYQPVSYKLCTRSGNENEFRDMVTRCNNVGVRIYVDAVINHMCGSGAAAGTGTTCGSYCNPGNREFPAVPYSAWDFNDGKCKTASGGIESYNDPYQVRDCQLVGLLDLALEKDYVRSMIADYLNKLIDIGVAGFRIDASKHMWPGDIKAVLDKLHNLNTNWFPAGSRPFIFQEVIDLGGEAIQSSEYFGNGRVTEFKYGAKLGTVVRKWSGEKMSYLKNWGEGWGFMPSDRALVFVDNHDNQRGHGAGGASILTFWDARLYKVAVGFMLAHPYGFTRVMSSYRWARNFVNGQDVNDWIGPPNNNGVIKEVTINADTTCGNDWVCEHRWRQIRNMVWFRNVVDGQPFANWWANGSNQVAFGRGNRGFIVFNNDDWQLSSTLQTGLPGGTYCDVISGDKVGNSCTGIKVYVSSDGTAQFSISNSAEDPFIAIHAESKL
The experiment in a line: α-amylase inhibition (starch-iodine method). The test is classed as biochemical, porcine.

Test [1] can be described thus: β-carotene-linoleic acid assay (inhibition of lipid peroxidation). The conditions noted are these: for β-Carotene-linoleic acid assay Inhibition (%): at 200 µg/mL.
Experimental: (§1) Antioxidant activities of all extracts were assessed by using different methods including β-carotene-linoleic acid assay, DPPH assay, ABTS assay, CUPRAC assay and Metal chelating assay. […] The DPPH assay was performed by using a spectrophotometer according to typical methods documented previously[23]. The ABTS^+assay was carried out as described previously by Re et al., (1999)[24]. The cupric reducing antioxidant capacity (CUPRAC) was evaluated by following the method published Apak et al., (2004)[25]. α-tocopherol and butylated hydroxy anisole (BHA) were used as antioxidant standards to compare the β-carotene-linoleic acid, DPPH, ABTS and CUPRAC assays. The metal chelating assay of extracts for Fe^+2 was performed by using a spectrophotometer as the method reported by Tel et al., (2012)[26]. Ethylenediaminetetraacetic acid (EDTA) was used as a standard.
(§2) IC50 values were calculated using a graph plotted between concentration (µg/mL) and percentage inhibition (%). A graph that plotted absorbance against concentration (µg/mL) was used to determine A0.50 values.
Test [2] in a line: DPPH free radical scavenging assay. The conditions noted are these: for DPPH assay Inhibition (%): at 200 µg/mL.
Experimental: as §1, §2
The nature of test [3]: ABTS cation radical scavenging assay. The note with it: for ABTS assay Inhibition (%): at 200 µg/mL.
Experimental: as §1, §2
Test [4] can be described thus: CUPRAC (cupric reducing antioxidant capacity) assay. The conditions noted are these: for CUPRAC assay Absorbance: at 200 µg/mL; for CUPRAC assay A0.50: concentration giving absorbance of 0.50.
Experimental: as §1, §2
Another test addresses T2, BChE (Equus caballus, UniProt P81908).
T2 construct: host or cells: equine serum
Briefly: Butyrylcholinesterase inhibition (DTNB spectrophotometric). The format is biochemical, horse.

The subject of a further test is tyrosinase. The experiment in a line: Tyrosinase inhibition (L-DOPA substrate). The test is classed as biochemical. The note with it: at 200 µg/mL.
Another test concerns the target urease (Canavalia ensiformis, UniProt P07374). The test is classed as biochemical, jack bean.

Chain of urease (P07374 whole entry, looked up): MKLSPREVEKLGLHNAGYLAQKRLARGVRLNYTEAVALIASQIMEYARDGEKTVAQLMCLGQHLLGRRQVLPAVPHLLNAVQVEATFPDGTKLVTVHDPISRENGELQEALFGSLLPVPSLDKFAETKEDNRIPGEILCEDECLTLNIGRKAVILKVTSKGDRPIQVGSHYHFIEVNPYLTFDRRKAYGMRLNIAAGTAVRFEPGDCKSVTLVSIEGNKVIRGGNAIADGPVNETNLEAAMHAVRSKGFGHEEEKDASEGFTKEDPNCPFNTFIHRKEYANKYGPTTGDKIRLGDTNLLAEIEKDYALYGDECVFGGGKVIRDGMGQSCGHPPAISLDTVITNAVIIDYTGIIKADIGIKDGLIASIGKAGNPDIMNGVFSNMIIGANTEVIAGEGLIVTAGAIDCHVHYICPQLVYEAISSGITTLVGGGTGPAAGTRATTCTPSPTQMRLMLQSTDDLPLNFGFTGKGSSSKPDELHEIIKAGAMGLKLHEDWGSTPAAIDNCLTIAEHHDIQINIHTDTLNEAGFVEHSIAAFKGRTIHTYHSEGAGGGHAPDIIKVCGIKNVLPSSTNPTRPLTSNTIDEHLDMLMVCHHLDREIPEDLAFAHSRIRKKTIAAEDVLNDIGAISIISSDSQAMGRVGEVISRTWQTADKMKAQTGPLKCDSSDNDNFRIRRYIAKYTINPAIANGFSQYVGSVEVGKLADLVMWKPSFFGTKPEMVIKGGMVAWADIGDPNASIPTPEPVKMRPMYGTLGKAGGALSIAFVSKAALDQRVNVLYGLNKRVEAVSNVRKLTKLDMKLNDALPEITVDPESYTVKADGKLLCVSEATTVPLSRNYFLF
T2 sequence (P81908 whole entry): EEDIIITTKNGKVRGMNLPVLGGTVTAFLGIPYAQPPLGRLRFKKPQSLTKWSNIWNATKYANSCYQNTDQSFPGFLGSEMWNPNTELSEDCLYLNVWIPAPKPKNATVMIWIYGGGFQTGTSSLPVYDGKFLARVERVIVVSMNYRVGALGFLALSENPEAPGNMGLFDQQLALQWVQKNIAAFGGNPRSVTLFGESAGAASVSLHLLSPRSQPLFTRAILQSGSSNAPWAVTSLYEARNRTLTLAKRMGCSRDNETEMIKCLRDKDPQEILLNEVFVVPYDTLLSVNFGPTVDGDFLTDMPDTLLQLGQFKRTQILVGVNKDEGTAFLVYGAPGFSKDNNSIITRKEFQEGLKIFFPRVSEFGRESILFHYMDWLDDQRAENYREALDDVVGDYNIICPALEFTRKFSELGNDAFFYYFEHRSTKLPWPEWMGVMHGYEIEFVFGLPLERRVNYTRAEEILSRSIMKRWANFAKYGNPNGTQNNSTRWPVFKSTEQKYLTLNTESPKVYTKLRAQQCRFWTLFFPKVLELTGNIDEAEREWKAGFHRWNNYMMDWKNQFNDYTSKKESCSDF
Experimental for BChE: The inhibitory activities of acetylcholinesterase and butyrylcholinesterase enzymes of the extracts were determined using spectrophotometer following the protocol described by Deveci et al., (2019) with slight modifications[27]. Acetylthiocholine iodide and butyrylthiocholine chloride were utilized as reaction substrates, while AChE from electric eels and BChE from horse serum were applied. Employing DTNB (5,5′-Dithio-bis(2-nitrobenzoic) acid), the cholinesterase activity was measured. In a nutshell, 130 µL of 100 mM sodium phosphate buffer (pH 8.0), 10 µL of sample solution at different concentrations, and 20 µL of enzyme (AChE or BChE) solution in buffer were mixed and incubated for 15 min at 25 °C, and 20 µL of 0.5 mM DTNB was added. Following that, 0.71 mM, 20 µL of acetylthiocholine iodide or 0.2 mM, 20 µL of butyrylthiocholine chloride were added to initiate the reaction. Utilizing a 96-well microplate reader, the hydrolysis of these substrates was observed spectrophotometrically by the formation of a yellow 5-thio-2-nitrobenzoate anion at a wavelength of 412 nm.
as §2
Experimental for Metal chelating assay: as §1, §2
Experimental for tyrosinase: Tyrosinase enzyme inhibitory activity was measured by the spectrophotometric method as described by Masuda et al., (2005)[29]. L-DOPA was utilized as substrate of the reaction. 150 µL of sodium phosphate buffer (pH 6.8, 100 mM), 10 µL of sample and 20 µL of tyrosinase enzyme solution in buffer were mixed and incubated for 10 min at 37 °C. Following incubation, 20 µL of L-DOPA was added. The absorbances in a 96-well microplate were monitored at 475 nm after 10 min of incubation at 37 °C.
(§3) IC50 values were calculated using a graph plotted between concentration (µg/mL) and percentage inhibition (%).
Experimental for α-amylase: The α-amylase inhibitory activity was evaluated by using starch-iodine method[30]. The enzyme α-amylase from porcine pancreas was used and enzyme solution was prepared with phosphate buffer (20 mM pH = 6.9 phosphate buffer prepared with 6 mM NaCl). Then, 50 µL of α-amylase and 25 µL of sample solutions were mixed in a 96-well microplate. The mixture was pre-incubated for 10 min at 37 °C. Then, 50 µL of starch solution (0.05%) was added and incubated for 10 min at 37 °C. Following incubation, the reaction was completed by adding HCl (0.1 M, 25 µL) and Lugol (100 µL) solutions, and the absorbance was recorded at 565 nm.
as §3
Experimental for α-glucosidase: 50 µL of phosphate buffer (0.01 M pH 6.9), 10 µL of sample solution, 50 µL of α-glucosidase from Saccharomyces cerevisiae in phosphate buffer (0.01 M pH 6.0) and 25 µL of PNPG (4-N-nitrophenyl-α-d-glucopyranoside) in phosphate buffer (0.01 M pH 6.9) were mixed in a 96-well microplate. Then the solution was incubated for 20 min at 37 °C.

In the case of `C[C@H]1O[C@H](O[C@H]2[C@H](O)[C@@H](O)[C@@H](O[C@H]3[C@H](O)[C@@H](O)C(O)O[C@@H]3CO)O[C@@H]2CO)[C@H](O)[C@@H](O)[C@@H]1N[C@H]1C=C(CO)[C@@H](O)[C@H](O)[C@H]1O` (stereo partly drawn) [Acarbose], in the test with α-glucosidase, the “α-glucosidase Inhibition (%)” value was 56.70 ± 0.75%. For the same molecule, the inhibition at 200 µg/mL on α-amylase is 82.1 ± 0.27%.

In the case of `COc1ccc(O)c(C(C)(C)C)c1` [BHA, butylated hydroxyanisole], in [1], the “β-Carotene-linoleic acid assay IC50” value amounted to 1.50 ± 0.03 µg/mL and the “β-Carotene-linoleic acid assay Inhibition (%)” value was 96.20 ± 0.28%. Further, in test [2], the “DPPH assay IC50” value came out at 19.50 ± 0.30 µg/mL and the “DPPH assay Inhibition (%)” value worked out at 87.90 ± 0.44%. In addition, in test [3], the “ABTS assay IC50” value came out at 12.70 ± 0.10 µg/mL and the “ABTS assay Inhibition (%)” value came to 88.93 ± 0.21%. For the same molecule, in test [4], the “CUPRAC assay Absorbance” value stood at 2.45 ± 0.07 and the “CUPRAC assay A0.50” value came to 25.40 ± 0.42 µg/mL.

With `O=C(O)CN(CCN(CC(=O)O)CC(=O)O)CC(=O)O` [EDTA, ethylenediaminetetraacetic acid], the “Metal chelating assay IC50” value in the test “Metal chelating assay” is 5.50 ± 0.25 µg/mL. Also, the “Metal chelating assay Inhibition (%)” value in the test “Metal chelating assay” (at 200 µg/mL) is on record as 94.40 ± 0.35%.

Turning to `COc1ccc2c3c1O[C@H]1C[C@@H](O)C=C[C@@]31CCN(C)C2` [Galantamine, galantamine], the inhibition at 200 µg/mL against BChE was 79.43 ± 0.6%.

Regarding `O=c1cc(CO)occ1O` [Kojic acid], in the test with tyrosinase, the “Tyrosinase inhibitory Inhibition (%)” value amounted to 83.54 ± 0.56%.

As for `NC(N)=S` [Thiourea, thiourea], the “Urease inhibitory IC50” value on urease came out at 8.20 ± 0.36 µg/mL. Besides, on urease (at 200 µg/mL), the “Urease inhibitory Inhibition (%)” value is on record as 87.37 ± 0.52%.

Turning to `Cc1c(C)c2c(c(C)c1O)CC[C@@](C)(CCC[C@H](C)CCC[C@H](C)CCCC(C)C)O2` [α-Tocopherol, α-tocopherol], in [1], the “β-Carotene-linoleic acid assay IC50” value was 2.10 ± 0.05 µg/mL and the “β-Carotene-linoleic acid assay Inhibition (%)” value was found to be 95.73 ± 0.44%. Further, in [2], the “DPPH assay IC50” value was 38.20 ± 0.50 µg/mL and the “DPPH assay Inhibition (%)” value is given as 84.25 ± 0.36%. In [3], the “ABTS assay IC50” value was 34.75 ± 0.55 µg/mL and the “ABTS assay Inhibition (%)” value was determined as 83.63 ± 0.34%. Further, in test [4], the “CUPRAC assay Absorbance” value turned out to be 0.88 ± 0.03 and the “CUPRAC assay A0.50” value amounted to 60.45 ± 0.30 µg/mL.

Values taken from article PMC11873045, “Phytochemical profiling and various biological activities of Phlomis tuberosa L” (Scientific Reports, 2025).
